Measurements taken from article PMC11247081 (Signal Transduction and Targeted Therapy, 2024).

Key:
[1] = system: HER2-mutant NSCLC; settings: pretreated patients with HER2-mutant NSCLC; cited from earlier work
[2] = pre-clinical studies; cited from earlier work
[3] = pre-clinical studies; cited from earlier work; remark: listed apart in the source
[4] = Pharmacokinetics of SHR-A1811, total antibody and free payload (non-compartmental); settings: for Tmax: median (range)
[5] = multiple dosing (cycle 3), SHR-A1811 […] (n=3), PK data available for 1 patient
[6] = single dosing (cycle 1), SHR-A1811 8.0 mg/kg (n=3), mean (SD)

In the case of Trastuzumab emtansine [T-DM1], the ORR [1] is listed as 44% and the “median DoR” value [1] is listed as 4 months.

In the case of `CC[C@@]1(O)C(=O)OCc2c1cc1n(c2=O)Cc2c-1nc1cc(F)c(C)c3c1c2[C@@H](NC(=O)[C@H](O)C1CC1)CC3` [Free payload], the “membrane permeability compared with the payload of T-DXd” value [2] is given as “superior”, the “cytotoxicity compared with the payload of T-DXd” value [3] is given as “superior” and the “exposure (Cmax, AUC0−21d, AUC0−t, and AUC0−∞) versus dose” value ([4]; after single dosing, over the tested dose range) is given as “increased in a dose-dependent manner”. For the same compound, the “plasma exposure compared with ADC and TAb” value ([4]; all studied dose levels) was “much lower”, the t1/2 [4, 5] was 5.6 (NC) day and the Tmax [4, 5] was 0.105 (0.1050-0.1050) day. For the same compound, the t1/2 ([4]; multiple dosing (cycle 3), SHR-A1811 […] (n=3), mean (SD)) was 5.7 (0.5) day, the Tmax ([4]; multiple dosing (cycle 3), SHR-A1811 […] (n=3)) was 0.124 (0.1150-0.1320) day and the t1/2 ([4]; multiple dosing (cycle 3), SHR-A1811 […] (n=10), mean (SD)) was 6.5 (1.6) day. For the same compound, the Tmax ([4]; multiple dosing (cycle 3), SHR-A1811 […] (n=10)) was 0.117 (0.1050-0.1190) day, the t1/2 ([4]; multiple dosing (cycle 3), SHR-A1811 […] (n=41), mean (SD)) was 6.3 (1.0) day and the Tmax ([4]; multiple dosing (cycle 3), SHR-A1811 […] (n=41)) was 0.104 (0.0806-7.0200) day. The AUC0-21d [4, 6] was 23.5 (7.4) day·ng/mL, the AUC0-t [4, 6] was 22.8 (6.2) day·ng/mL and the “AUC0-∞” value [4, 6] was 25.2 (7.6) day·ng/mL. For the same compound, the Cmax [4, 6] was 3.9 (1.0) ng/mL, the MRT [4, 6] was 7.6 (1.8) day and the t1/2 [4, 6] was 5.5 (1.1) day. For the same compound, the Tmax ([4]; single dosing (cycle 1), SHR-A1811 8.0 mg/kg (n=3)) was 1.0600 (0.3960-1.0600) day, the t1/2 ([4]; single dosing (cycle 1), SHR-A1811 […] (n=10), mean (SD)) was 5.9 (1.1) day and the Tmax ([4]; single dosing (cycle 1), SHR-A1811 […] (n=10)) was 0.3990 (0.1470-1.0200) day. For the same compound, the t1/2 ([4]; single dosing (cycle 1), SHR-A1811 […] (n=41), mean (SD)) was 5.2 (0.6) day and the Tmax ([4]; single dosing (cycle 1), SHR-A1811 […] (n=41)) was 0.3960 (0.0236-1.0600) day.
